Laboratory results from US20240287172A1, “PROTEIN BINDERS TO IRHOM2 EPITOPES” (SCIRHOM GMBH, priority 2019, published 2024).

How the values were obtained:
[1] = tested on: PMA-induced release of endogenous IL-6R from PBMCs from patients suffering from rheumatoid arthritis; assay: ELISA-based IL-6R release assay, PMA-induced, PBMCs from RA-patients; format: cell-based; settings: Homo sapiens, PBMC; PMA 25 ng/ml, 24 hours; chimeric antibodies (CHO) and IgG at 1 μg/ml; Batimastat at 10 μM
Description: In brief, on day 1, Nunc black MaxiSorp® 96-well plates (Thermo Fisher Scientific, USA) were coated overnight with 100 μl per well of mouse anti-human IL-6R capture antibody (provided as part of the DuoSet ELISA kit) at 4 μg/ml TBS at 4° C. Meanwhile, 40,000 PBMC from patients suffering from rheumatoid arthritis (STEMCELL Technologies, Canada) cells in 80 μl of normal growth medium were seeded in each well of Greiner CELLSTAR V-bottom 96-well plates (Thermo Fisher Scientific, USA) and pre-incubated with 20 μl per well of standard growth medium supplemented with Batimastat (BB94, Abcam, UK) at 50 μM as positive control (for a final concentration of 10 μM in the resulting 100 μl sample volume), mouse IgG antibody (Thermo Fisher Scientific, USA) at 5 μg/ml as isotype control (for a final concentration of 1 μg/ml in the resulting 100 μl sample volume) or antibodies of the invention at 5 μg/ml (for a final concentration of 1 μg/ml in the resulting 100 μl sample volume) at 37° C., 5% CO2 for 30 minutes. In case of stimulation controls, 20 μl of standard growth medium without test articles were added. […] Using an infinite M1000 (Tecan Group, Switzerland) microplate reader, the fluorescence of each well was collected at an excitation wavelength of 435 nm and an emission wavelength of 555 nm.

[2] = tested on: PMA-induced release of endogenous HB-EGF from PBMCs from healthy donors; assay: ELISA-based HB-EGF release assay, PMA-induced, PBMCs from healthy donors; format: cell-based; settings: Homo sapiens, PBMC; PMA 25 ng/ml, 6 hours; recombinant murine antibodies and IgG at 1 μg/ml; Batimastat at 10 μM
Description: In brief, on day 1, Nunc black MaxiSorp® 96-well plates (Thermo Fisher Scientific, USA) were coated overnight with 100 μl per well of mouse anti-human HB-EGF capture antibody (provided as part of the DuoSet ELISA kit) at 4 μg/ml TBS at 4° C. On day 2, the capture antibody solution was removed and MaxiSorp® plates were blocked with 300 μl per well of TBS, 1% BSA at room temperature for 3 hours. Meanwhile, 80,000 PBMC from healthy donors (STEMCELL Technologies, Canada) cells in 80 μl of normal growth medium were seeded in each well of Greiner CELLSTAR V-bottom 96-well plates (Thermo Fisher Scientific, USA) and pre-incubated with 20 μl per well of standard growth medium supplemented with Batimastat (BB94, Abcam, UK) at 50 μM as positive control (for a final concentration of 10 μM in the resulting 100 μl sample volume), mouse IgG antibody (Thermo Fisher Scientific, USA) at 5 μg/ml as isotype control (for a final concentration of 1 μg/ml in the resulting 100 μl sample volume) or antibodies of the invention at 5 μg/ml (for a final concentration of 1 μg/ml in the resulting 100 μl sample volume) at 37° C., 5% CO2 for 30 minutes. […] Using an infinite M1000 (Tecan Group, Switzerland) microplate reader, the fluorescence of each well was collected at an excitation wavelength of 435 nm and an emission wavelength of 555 nm.

CNC(=O)[C@H](Cc1ccccc1)NC(=O)[C@H](CC(C)C)[C@H](CSc1cccs1)C(=O)NO [Batimastat]
inhibition at 10 µM [1]: 104%
inhibition at 10 µM [2]: 94.9%
